According to publication PMC11615292, “Fast-diffusing receptor collisions with slow-diffusing peptide ligand assemble the ternary parathyroid hormone–GPCR–arrestin complex” (Nature Communications, 2024):

How the values were obtained:
βarr2L69C-BIM = molecular target: T1, βarr2L69C-BIM (Homo sapiens, UniProt P32121, C126S/C141L/C151V/C17S/C243V/C252V/C270S/C409S/C60V/L69C); assay: bimane fluorescence titration, single-site fit; assay type: binding
T1 construct: gene ARRB2; Cys-less full-length βarr2 with L69C in finger loop, labelled with monobromobimane at C69; E. coli NiCo21(DE3), pET-15b; N-terminal 6xHis-3C removed by 3C protease, GG-AviTag-GGSGGS linker kept
Description: bimane fluorescence titration, single-site fit on βarr2L69C-BIM | PIP3 binds βarr2 with higher affinity than PIP2 and induces a conformational change | Like PIP2 and V2Rpp, PIP3 induced a concentration-dependent increase in bimane fluorescence

[1] = molecular target: PTH type 1 receptor C-terminally fused to monomeric NeonGreen (PTH1R^mNG) (human) (UniProt Q03431)
Sequence of PTH type 1 receptor C-terminally fused to monomeric NeonGreen (PTH1R^mNG) (human) (Q03431 27-593): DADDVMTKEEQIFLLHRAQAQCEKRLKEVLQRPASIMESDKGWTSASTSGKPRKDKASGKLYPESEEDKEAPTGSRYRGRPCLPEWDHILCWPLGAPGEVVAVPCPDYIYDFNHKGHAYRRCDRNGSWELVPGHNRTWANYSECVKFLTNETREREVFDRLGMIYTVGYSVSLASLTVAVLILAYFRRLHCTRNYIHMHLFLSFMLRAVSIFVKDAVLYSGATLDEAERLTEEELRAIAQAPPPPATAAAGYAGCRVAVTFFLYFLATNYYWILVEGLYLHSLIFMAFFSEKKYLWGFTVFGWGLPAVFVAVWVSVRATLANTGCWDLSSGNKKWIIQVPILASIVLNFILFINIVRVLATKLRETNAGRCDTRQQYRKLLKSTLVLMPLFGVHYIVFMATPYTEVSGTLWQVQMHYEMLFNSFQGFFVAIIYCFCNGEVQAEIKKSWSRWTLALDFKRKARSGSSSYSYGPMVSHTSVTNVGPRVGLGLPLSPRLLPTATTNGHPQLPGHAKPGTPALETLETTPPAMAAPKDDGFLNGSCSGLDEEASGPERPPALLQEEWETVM

T1 sequence (P32121 whole entry C17S/C60V/L69C/C126S/C141L/C151V/C243V/C252V/C270S/C409S): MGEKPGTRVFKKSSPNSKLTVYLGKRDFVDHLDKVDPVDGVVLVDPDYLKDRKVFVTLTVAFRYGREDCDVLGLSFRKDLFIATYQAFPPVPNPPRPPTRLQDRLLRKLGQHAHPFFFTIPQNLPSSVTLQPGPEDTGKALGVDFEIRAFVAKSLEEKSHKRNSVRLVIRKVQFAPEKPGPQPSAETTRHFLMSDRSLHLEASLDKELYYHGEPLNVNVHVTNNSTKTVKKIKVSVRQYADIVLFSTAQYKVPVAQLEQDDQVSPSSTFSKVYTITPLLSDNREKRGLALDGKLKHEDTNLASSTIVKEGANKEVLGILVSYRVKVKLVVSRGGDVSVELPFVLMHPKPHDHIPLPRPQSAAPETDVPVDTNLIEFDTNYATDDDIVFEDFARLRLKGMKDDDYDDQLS

Row | Kd (βarr2L69C-BIM) [µM] | average diffusion coefficient (D) of PTH1R^mNG molecules in the presence of PTH^TMR (0.088 µm^2/s in the absence of the ligand), single-molecule tracking [1] [µm^2/s] | Molecule
1 | 15.5 ± 2.6 | – | CCCCCCCC(=O)OC[C@H](COP(=O)(O)O[C@H]1[C@H](O)[C@@H](OP(=O)(O)O)[C@H](OP(=O)(O)O)[C@@H](OP(=O)(O)O)[C@H]1O)OC(=O)CCCCCCC [diC8-PI(3,4,5)P3]
2 | – | 0.02 | PTH(1-34) labeled in position 13 with tetramethylrhodamine (PTH^TMR) (peptide)
3 | 64.8 ± 16.8 | – | CCCCCCCC(=O)OC[C@H](COP(=O)(O)O[C@@H]1[C@H](O)[C@H](O)[C@@H](OP(=O)(O)O)[C@H](OP(=O)(O)O)[C@H]1O)OC(=O)CCCCCCC [di-C8-PI(4,5)P2]
